We go through two substances from patent EP0073711A1, “Salts of 2-oxopentane-1,5-dicarboxylic acid, their preparation and pharmaceutical preparations containing these salts” (S.A. D[…] LEBAS (Société Anonyme), priority 1981, dated 1983).

Data set [1] in a line: Solubility in water at 20°C. Particulars: lithium salt. Type of data set: physicochemical.
Data set [2] in a line: Tests on the acid lithium salt (pharmacological and therapeutic properties). Particulars: compared with the calcium salt.
Data set [3] relates to système nerveux central de la souris. The data set can be described thus: Reduction of reserpine ptosis. Particulars: souris, 0,5g par kg à 1g par kg per os, 1 hour after administration. Type of data set: in vivo. The source says: (§1) Activité du sel acide de calcium de l'acide 2-oxo-1,5- pentane dioîque sur le système nerveux central de la souris.
1. Réduction du ptosis réserpinique

A further data set relates to patient. The data set can be described thus: Clinical test: corrective effects on hypoxia (chamber, 12,5% O2). As to conditions: acute dose 12g per os, hypoxia at 12,5% O2. The format is in vivo, homme. The source says:
1. Effets correctifs du sel acide de calcium de l'acide 2-oxo 1,5-pentane dioïgue sur l'hypoxie
Le test est réalisé sur le patient après le passage de celui-ci en caisson sous une hypoxie à 12,5% d'O2.

The subject of data set [4] is système nerveux central de la souris. In words: Antagonism of the muscle-relaxant action of chlorpromazine (CPZ). The format is in vivo.
Source text: as §1
2. Antagonisme de l'action myorelaxante de la Chlorpromazine (CPZ)
La chlorpromazine induit une myorelaxation chez la souris. On constate une réduction de 37,5% pour une dose de 1g par kg et une réduction de 62,5% pour une dose de 2g par kg.

Data set [5] has the same test system. The data set can be described thus: Motor activity. Type of data set: in vivo.
Source text: as §1
Ce test a montré que l'adminitration à des souris du sel conforme à l'invention, provoque une augmentation de leur activité motrice.

The test system is the same in data set [6]. In words: Reduction of barbiturate narcosis. Type of data set: in vivo.
Source text: as §1
4. Réduction de la narcose barbiturique
Les résultats de ce test se sont avérés positifs, chez la souris.

Data set [7] shares this test system. In words: Catalepsy (prochlorpémazine-induced catatonia). As to conditions: catalepsy test. The format is in vivo.
Source text: as §1
Ce test a montré que le sel conforme à l'invention s'oppose à l'activité catatonique de la prochlorpémazine.

Data set [8] in a line: Pharmacokinetic study with C14-labelled salt. Type of data set: in vivo. As to conditions: rats, C14-labelled molecule. The source says: Dans cette étude, on a administré à des rats le sel conforme à l'invention dont la molécule a été marquée au C^14 radioactif.
The test system of data set [9] is système nerveux central de la souris. In words: Reduction of reserpine hypothermia. The format is in vivo. As to conditions: doses between 0,5 and 1g par kg per os.
Source text: as §1
5. Réduction de l'hypothermie réserpinique

A further data set deals with rats. In words: 30-day daily treatment toxicity. The format is in vivo. As to conditions: daily treatment 30 days, doses up to 1g par kg et par jour. The source says:
Un groupe de rats a été soumis à un traitement quotidien par le sel acide de calcium de l'acide 2-oxo-1,5- pentane dioique pendant une durée de 30 jours.

The test system of a further data set is patients. The data set can be described thus: Clinical study: memory disorders, neurotic (anxiophobic) and psychasthenic states, versus placebo. As to conditions: sixty patients, 4g daily in two doses versus placebo. The format is in vivo, homme. The source says: 2. Correction des troubles de la mémoire, des états névrotiques (anxiophobiques), et des états psychasténiques

Data set [10] deals with système nerveux central de la souris. The data set can be described thus: Hole-board test. The format is in vivo.
Source text: as §1
6. Test de la planche à trous
Sur une planche percée de trous, la souris, parcourant la surface, explore les divers trous rencontrés.

The test system is the same in data set [11]. The data set can be described thus: Rotarod test (rotating cylinder) after chlorpromazine. The format is in vivo. Particulars: from the dose of 0,5g par kg.
Source text: as §1
3. Test du "rotarod" (cylindre tournant)
Dans ce test, la souris tourne sur un cylindre animé d'un mouvement rotatif, perd l'équilibre et tombe après administration de chlorpromazine (CPZ).
(In general: Falling from the rotarod earlier than controls is read as motor impairment.)

With “sel acide de lithium de l'acide 2-oxo-1,5- pentane dioïque [sel de lithium acide]”, the “solubilité dans l'eau à 20°C” value in [1] is recorded as 5,5 % en poids. Moreover, the “propriétés pharmacologiques et thérapeutiques” value in data set [2] is recorded as “comparables à celles du sel de calcium”.

With “sel de calcium acide de l'acide 2-oxo-1,5- pentane dioïque”, the “ptosis réserpinique” value in data set [3] is on record as “réduit de façon significative”. Further, in the data set with patient, the “effet correctif sur l'hypoxie” value was “activateur efficace capable de contrebalancer l'effet d'une hypoxie”. Further, the “réduction (myorelaxation induite par la chlorpromazine)” value in data set [4] (dose 1g par kg) is 37,5%. In addition, the “réduction (myorelaxation induite par la chlorpromazine)” value in data set [4] (dose 2g par kg) is on record as 62,5%. The activité motrice result in data set [5] is reported as “augmentation”. Moreover, the “réduction de la narcose barbiturique” value in data set [6] was “positifs”. Also, the “activité catatonique de la prochlorpémazine” value in data set [7] was “s'oppose”. Also, in data set [8], the “passage à travers la barrière hématoencéphalique” value was “passage de la molécule à travers la barrière hématoencéphalique” and the “principal métabolite d'élimination” value is reported as “acide glutamique”. Further, the “conversion au niveau cérébral” value in data set [8] (in the brain) is reported as “conversion de celle-ci en acide gamma-aminobutyrique (GABA)”. In addition, in data set [9], the “réduction de l'hypothermie réserpinique” value is “résultats positifs”. Further, the “anomalie dans les constantes biologiques, hématologiques et les examens histologiques de différents viscères” value with rats was “Aucune anomalie”. In addition, the “efficacité à l'égard des troubles de la mémoire, états névrotiques (anxiophobiques) et états psychasténiques” value in the data set on patients is “excellente efficacité”. Also, in [10] (after a single treatment, méprobamate-induced decrease of exploration), the “exploration (planche à trous) sous méprobamate” value is recorded as “inhibition de la diminution d'exploration”. The “activité exploratrice (planche à trous)” value in [10] (after three days of pretreatment, versus control animals) was “augmentation notable”. Moreover, in data set [11], the “antagonisme du CPZ (rotarod)” value was “antagonisme du CPZ”.
